Data as given in patent publication US20220401385A1, “Combination Therapy Based on PD-1 Signaling Inhibitors” (Kyoto University, priority 2019, published 2022).
“Also recorded” adds a separate entry of the source.

Tested on: CD44 high CD8+ T cells
Assay: PI and Annexin apoptosis assay, CD44 high cells
Format: cell-based, mice
Settings: in the presence of SPD 0.2 μM
Procedure: FIG. 4 CD8^+ T cells were isolated from the spleen of mice without tumor inoculation, and further isolated into CD44^+ (CD44 high) and CD44^− (CD44 low) cell populations. a) CD44 low cells were simulated with CD3/CD28 antibody beads and SPD (0.2 μM). After 30 minutes, 1 hour, 2 hours and 72 hours, OCR was measured with a Seahorse analyzer. b) At the same time, total ATP production and glycolytic pathway-derived or mitochondrial activity-derived ATP production were calculated at 30-minute, 1-hour and 2-hour. c) CD44 low cells (2×10^5 cells) were stimulated with CD3/CD28 antibody beads and SPD (0.2 μM). After 24 hours, cell proliferation was examined by means of 3H uptake. d) Spare respiratory capacity (SRC) was calculated from the OCR measurement after 72 hours in a), and results with and without SPD were compared. e) CD44 low cells were stimulated with CD3/CD28 antibody beads and SPD (0.2 μM). After 24 hours, frequencies between apoptotic and viable cells were calculated by PI and Annexin staining. f-j) CD44 high cells were analyzed under the same conditions and by the same methods as described in a-e) above. […] All flow cytometry experiments were performed on FACS Canto II (BD Biosciences) and analyzed using FlowJo software (FLOWJO, LLC). […]

NCCCCNCCCN [SPD, spermidine]
apoptotic cells: decreased
viable cells: increased; also recorded: significantly high
